Test results published in US11779559B2, “Compositions for treating fungal and bacterial biofilms and methods of using the same” (priority 2017, dated 2023).
Like-named read-outs stand apart in the source and are kept apart here.

Columns and labels:
S. aureus [1] = test: Disruption biofilm assay, bacterial; type: cell-based, Staphylococcus aureus; conditions: for activation at 1 % / inhibition at 1 %: Staphylococcus aureus; for activation at 1 %: read-out: Promote B Biofilm; for inhibition at 1 %: 24 h, read-out: Reduce B Biofilm
Experimental: (§1) Two types of biofilm assays were performed: a sustained inhibition assay and a disruption assay. The sustained inhibition assay assesses the compound's ability to prevent biofilm development throughout all stages of biofilm formation, while the disruption assay assesses the compound's ability to break up an existing mature biofilm. These assays are described in detail in the following article: Lohse, M. B., Gulati, M., Valle Arevalo, A., Fishburn, A., Johnson, A. D., and Nobile, C. […] Antimicrobial Agents and Chemotherapy 61: e02749-16.
(§2) All bacterial biofilm solutions were prepared in Trypic Soy Broth (TSB), supplemented with 1% glucose (henceforth referred to as TSB-G). All subsequent procedures were performed in a manner that maintained sterility. A solution of each amino acid to be tested was prepared in weight to volume concentrations ranging from 0.1-5.0%. Amino acids were also tested in combinations. Compound solutions were homogenized with gentle agitation in the dark (4° C., 24 hours) before use.
(§3) Bacterial strains were streaked on Blood Agar plates (5% sheep blood in Tryptic Soy Agar) and incubated at 37° C. for 24 hours. A single colony from each strain to be tested was inoculated in a TSB broth and grown for 12 hours, at 37° C. with shaking (225 rpm). For the bacterial biofilm inhibition assays, 1 μL of saturated overnight cell culture was added to either 80 μL of TSB-G, or TSB-G supplemented with the amino acid compound solution to be tested, in a 384-well plate. The cells were allowed to adhere to the plate for 60 minutes at 37° C. without shaking. The media was carefully aspirated and 80 μL of TSB-G, or TSB-G supplemented with the amino acid compound solution was added to the plate. The plate was further incubated for 24 hours at 37° C. without shaking. Media was carefully aspirated and the biofilm was measured by optical density at 600 nm. Eight or twelve replicates were performed for each tested condition and the reported values are normalized to the control (TSB-G media only). For the bacterial biofilm disruption assays, 80 μL of TSB-G was added to the plate, along with 1 μL of overnight cell culture. The cells were allowed to adhere to the plate for 60 minutes at 37° C. with no shaking. The media was carefully aspirated and 80 μL of TSB-G was added to the plate. The plate was further incubated for 24 hours at 37° C. with no shaking. Media was carefully aspirated from the mature biofilm and 80 μL of TSB-G, or TSB-G supplemented with the amino acid to be tested, was gently added to the plate. The plate was further incubated for 24 hours at 37° C. without shaking. Media was aspirated and the biofilm was measured by optical density at 600 nm. Twelve replicates were performed for each tested condition and the reported values are normalized to the control (TSB-G media only).

bacterial biofilms = test: Biofilm assays (sustained inhibition and/or disruption), bacterial biofilms; type: cell-based; conditions: in at least one of the two biofilm assays; for Anti-biofilm effect against bacterial biofilms (reduction): administered individually at about 0.1 to about 5.0% weight to volume
Experimental: (§4) Two types of biofilm assays were performed: a sustained inhibition assay and a disruption assay. The sustained inhibition assay assesses the compound's ability to prevent biofilm development throughout all stages of biofilm formation, while the disruption assay assesses the compound's ability to break up an existing mature biofilm. These assays are described in detail in the following article: Lohse, M. B., Gulati, M., Valle Arevalo, A., Fishburn, A., Johnson, A. D., and Nobile, C. J. (2017) Assessment and optimizations of Candida albicans in vitro biofilm assays. Antimicrobial Agents and Chemotherapy 61: e02749-16.
as §2, with “For fungal biofilm assays, all solutions were prepared in RPMI 1640 medium. All bacterial” for “All bacterial”
(§5) All biofilm assays were performed using 384-well non-tissue culture treated polystyrene plates. The fungal species tested are as follows: Candida albicans, Candida guilhermondii, Candida parapsilosis, Candida glabrata, Candida tropicalis, Candida dubliniensis, and Candida auris. The bacterial species tested are as follows: Staphylococcus aureus (standard wild type and methicillin-resistant strain USA300), Escherichia coli, Pseudomonas aeruginosa and Staphylococcus epidermidis.
as §3

[2] = test system: fungal and bacterial biofilms; test: Biofilm assays (sustained inhibition and disruption), fungal and bacterial biofilms; type: cell-based; conditions: for Effect on bacterial or fungal biofilms in both assays: sustained inhibition and disruption; for Effect on biofilms: single component on its own
Experimental: as §4
as §2, with “For fungal biofilm assays, all solutions were prepared in RPMI 1640 medium. All bacterial” for “All bacterial”
as §5
(§6) Fungal strains were streaked on Yeast Peptone Dextrose (YPD) agar plates and incubated at 30° C. for 48 hours. A single colony from each strain to be tested was inoculated into YPD broth and grown for 12 hours, at 30° C., shaking at 225 rpm. For the fungal biofilm inhibition assay, 1 μl of saturated overnight cell culture was added to either 80 μL of RPMI-1640 or RPMI-1640 supplemented with the amino acid compound solution to be tested, in a 384-well plate. The cells were allowed to adhere to the plate for 90 minutes at 37° C. with shaking (350 rpm). Loosely bound cells were washed once with phosphate buffered saline (PBS) and 80 ul of RPMI-1640, or RPMI-1640 supplemented with the amino acid compound solution was added to the plate. The plate was further incubated for 24 hours at 37° C. with shaking (350 rpm). Media was carefully aspirated and the biofilm was measured by optical density at 600 nm. Twelve replicates were performed for each tested condition and the reported values are normalized to the control (RPMI-1640 media only). For the fungal biofilm disruption assays, 80 μL of RPMI-1640 was added to the plate, along with 1 μL of overnight cell culture. The cells were allowed to adhere to the plate for 90 minutes at 37° C. with shaking (350 rpm). Loosely bound cells were washed once with PBS and 80 μL of RPMI-1640 was added to the plate. The plate was further incubated for 24 hours at 37° C. with shaking (350 rpm). Media was carefully aspirated from the mature biofilm and 80 μL of RPMI-1640, or RPMI-1640 supplemented with the amino acid compound solution to be tested, was gently added to the plate. The plate was further incubated for 24 hours at 37° C. with shaking (350 rpm). Media was carefully aspirated and the biofilm was measured by optical density at 600 nm. Twelve replicates were performed for each tested condition and the reported values are normalized to the control (RPMI-1640 media only).
Bacterial strains were streaked on Blood Agar plates (5% sheep blood in Tryptic Soy Agar) and incubated at 37° C. for 24 hours. A single colony from each strain to be tested was inoculated in a TSB broth and grown for 12 hours, at 37° C. with shaking (225 rpm).

S. aureus [3] = test: Sustained inhibition biofilm assay, bacterial; type: cell-based, Staphylococcus aureus; conditions: for activation at 1 %: Staphylococcus aureus, read-out: Promote B Biofilm
Experimental: as §1, §2, §3

fungal biofilms = test: Biofilm assays (sustained inhibition and/or disruption), fungal biofilms; type: cell-based; conditions: administered individually; in at least one of the two biofilm assays
Experimental: as §4
as §2, with “For fungal biofilm assays, all solutions were prepared in RPMI 1640 medium. All bacterial” for “All bacterial”
as §5, §6

[4] = disruption assay, S. aureus, 1% amino acid (unless specifically noted), p≤0.001
[5] = sustained inhibition assay, S. aureus, 1% amino acid (unless specifically noted), p≤0.001

SMILES | activation at 1 % (S. aureus [1]; [4]) [%] | Effect on bacterial biofilm growth (bacterial biofilms) | activation at 1 % (S. aureus [3]; [5]) [%] | also measured
CC[C@H](C)[C@H](N)C(=O)O [Isoleucine, L-isoleucine] | 10 to 30 | support (improve) bacterial biofilm growth | – | –
CCC(N)C(=O)O (stereo not drawn) [2 Aminobutyric Acid, 2-aminobutyric acid] | – | – | – | Effect on bacterial or fungal biofilms in both assays [2]: neutral
NCCC(=O)O [Beta-Alanine, Beta-alanine] | – | – | – | Reduce B Biofilm (S. aureus [3]; [5]): ● (a single dot [ie. •] signifies minor effect (from about 10 to about 30% change)); Anti-biofilm effect against bacterial biofilms (reduction) (bacterial biofilms): less than twofold
CSCC[C@H](N)C(=O)O [Methionine, L-methionine] | – | support (improve) bacterial biofilm growth | 10 to 30 | –
NCCC[C@H](N)C(=O)O [Ornithine, L-ornithine] | 10 to 30 | support (improve) bacterial biofilm growth | 10 to 30 | –
O=C(O)[C@@H]1C[C@@H](O)CN1 [Hydroxyproline, Trans-4-hydroxy-L-proline] | – | – | – | Reduce B Biofilm (S. aureus [3]; [5]): ● (a single dot [ie. •] signifies minor effect (from about 10 to about 30% change)); inhibition at 1 % (S. aureus [1]): 10 to 30%; Anti-biofilm effect against bacterial biofilms (reduction) (bacterial biofilms): less than twofold
N[C@@H](CCS)C(=O)O [Homocysteine (0.4%), L-homocysteine] | – | – | – | Anti-biofilm effect against fungal biofilms (reduction) (fungal biofilms): less than twofold
NCCS(=O)(=O)O [Taurine, L-taurine] | 10 to 30 | support (improve) bacterial biofilm growth | 10 to 30 | –
NCCCC[C@H](N)C(=O)O [Lysine, L-lysine] | – | support (improve) bacterial biofilm growth | – | activation at 1 % (S. aureus [3]): 10 to 30%; activation at 1 % (S. aureus [1]): 10 to 30%
N[C@@H](Cc1ccc(O)cc1)C(=O)O [Tyrosine, L-tyrosine] | – | – | – | Effect on biofilms [2]: neutral effect on biofilms; Effect on bacterial or fungal biofilms in both assays [2]: neutral
NC(=O)NCCC[C@H](N)C(=O)O [Citrulline, L-citrulline] | – | support (improve) bacterial biofilm growth | – | activation at 1 % (S. aureus [3]): 10 to 30%; activation at 1 % (S. aureus [1]): 10 to 30%
N[C@@H](Cc1c[nH]cn1)C(=O)O [Histidine, L-histidine] | – | – | – | Effect on bacterial or fungal biofilms in both assays [2]: neutral
N[C@@H](Cc1c[nH]c2ccccc12)C(=O)O [Tryptophan, L-tryptophan] | – | – | – | Effect on bacterial or fungal biofilms in both assays [2]: neutral
NCC(=O)O [Glycine, L-glycine] | 10 to 30 | support (improve) bacterial biofilm growth | 10 to 30 | –
NC(=O)C[C@H](N)C(=O)O [Asparagine, L-asparagine] | – | support (improve) bacterial biofilm growth | 10 to 30 | –
C[C@@H](O)[C@H](N)C(=O)O [Threonine, L-threonine] | – | support (improve) bacterial biofilm growth | 10 to 30 | –
Cn1cnc(C[C@H](N)C(=O)O)c1 [1-Methylhistidine, 1-methyl-L-histidine] | – | – | – | Effect on bacterial or fungal biofilms in both assays [2]: neutral
N=C(N)NCCC[C@H](N)C(=O)O [Arginine, L-arginine] | – | support (improve) bacterial biofilm growth | – | activation at 1 % (S. aureus [3]): 10 to 30%; activation at 1 % (S. aureus [1]): 10 to 30%
NCCOP(=O)(O)O [Phosphoethanolamine, 0-phosphoethanolamine] | – | – | – | Reduce B Biofilm (S. aureus [3]; [5]): ● (a single dot [ie. •] signifies minor effect (from about 10 to about 30% change)); Reduce B Biofilm (S. aureus [1]; [4]): ● (a single dot [ie. •] signifies minor effect (from about 10 to about 30% change)); Anti-biofilm effect against bacterial biofilms (reduction) (bacterial biofilms): less than twofold
NC(CCCC(=O)O)C(=O)O (stereo not drawn) [2 Aminoadipic Acid, 2-aminoadipic acid] | – | – | – | Reduce B Biofilm (S. aureus [3]; [5]): ● (a single dot [ie. •] signifies minor effect (from about 10 to about 30% change)); inhibition at 1 % (S. aureus [1]; [4]): 10 to 30%; Anti-biofilm effect against bacterial biofilms (reduction) (bacterial biofilms): less than twofold
C[C@H](N)C(=O)O [Alanine, L-alanine] | 10 to 30 | support (improve) bacterial biofilm growth | – | –
CC(C)C[C@H](N)C(=O)O [Leucine, L-leucine] | 10 to 30 | support (improve) bacterial biofilm growth | 10 to 30 | –
N[C@@H](Cc1ccccc1)C(=O)O [Phenylalanine, L-phenylalanine] | 10 to 30 | support (improve) bacterial biofilm growth | 10 to 30 | –
N[C@@H](CO)C(=O)O [Serine, L-serine] | 10 to 30 | support (improve) bacterial biofilm growth | 10 to 30 | –
N[C@@H](CCSC[C@H](N)C(=O)O)C(=O)O [Cystathionine (0.2%), L-cystathionine] | – | – | – | inhibition at 1 % (S. aureus [1]; [4]): 10 to 30%
OCC(O)CO [glycerol] | – | – | – | Effect on biofilms [2]: not found to have antibiofilm effects
